Results published in the supplement of paper PMC11061612.

Columns and labels:
Experiment in all cases: Bliss excess, mean over the matrix (fraction); higher = more synergy
[1] = tested on: 42-MG-BA (Glioblastoma)
Summary of the method: (§1)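 Cell lines in DMEM/F12 or RPMI with 10% FBS were plated in 1536-well plates, held 24 hours at 37°C, 5% CO2, then given two-drug dose matrices for 72 hours (DMSO typically 0.2%). Viability was read by CellTiter-Glo 2.0 luminescence and scaled as inhibition from 0 (vehicle wells) to 1 (blank wells). Combination Emax is the second-highest inhibition in the matrix; Bliss excess is observed combination effect minus expected EA + EB − EA·EB, EA and EB being single-agent effects.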

[2] = tested on: B-CPAP (Thyroid Gland Carcinoma)
Summary of the method: as §1

[3] = tested on: DoTc2-4510 (Cervical Carcinoma)
Summary of the method: as §1

[4] = tested on: EC-GI-10 (Esophageal Squamous Cell Carcinoma)
Summary of the method: as §1

[5] = tested on: ES4 (Ewing's Sarcoma)
Summary of the method: as §1

[6] = tested on: HO-1-N-1 (Oral Cavity Carcinoma)
Summary of the method: as §1

[7] = tested on: KELLY (Neuroblastoma)
Summary of the method: as §1

[8] = tested on: KURAMOCHI (Ovarian Carcinoma)
Summary of the method: as §1

[9] = tested on: KYSE-520 (Esophageal Squamous Cell Carcinoma)
Summary of the method: as §1

[10] = tested on: LS-180 (Colorectal Carcinoma)
Summary of the method: as §1

[11] = tested on: MDA-MB-361 (Breast Carcinoma)
Summary of the method: as §1

[12] = tested on: MFE-296 (Endometrial Carcinoma)
Summary of the method: as §1

[13] = tested on: NB10 (Neuroblastoma)
Summary of the method: as §1

[14] = tested on: NCI-H82 (Small Cell Lung Carcinoma)
Summary of the method: as §1

[15] = tested on: NOS-1 (Osteosarcoma)
Summary of the method: as §1

[16] = tested on: OVCA420 (Ovarian Carcinoma)
Summary of the method: as §1

[17] = tested on: SK-ES-1 (Ewing's Sarcoma)
Summary of the method: as §1

[18] = tested on: TE-15 (Esophageal Squamous Cell Carcinoma)
Summary of the method: as §1

[19] = tested on: TE-9 (Esophageal Squamous Cell Carcinoma)
Summary of the method: as §1

Row | SMILES | Bliss excess [1] | Bliss excess [2] | Bliss excess [3] | Bliss excess [4] | Bliss excess [5] | Bliss excess [6] | Bliss excess [7] | Bliss excess [8] | Bliss excess [9] | Bliss excess [10] | Bliss excess [11] | Bliss excess [12] | Bliss excess [13] | Bliss excess [14] | Bliss excess [15] | Bliss excess [16] | Bliss excess [17] | Bliss excess [18] | Bliss excess [19]
1 | CN(C)CCCOc1ccc(-c2ccc3ncc4c(c3c2)n(C2CCOCC2)c(=O)n4C)cn1 [AZD0156] + CCN(CCO)CCCOc1ccc2c(Nc3cc(CC(=O)Nc4cccc(F)c4)[nH]n3)ncnc2c1 [AZD2811] (first compound max 1 µM, 7x7, partner max 1 µM) | 0.0813 | -0.0224 | -0.0111 | 0.0507 | 0.03 | 0.0056 | 0.0099 | -0.0357 | 0.005 | -0.0264 | -0.0078 | -0.0356 | -0.0464 | 0.0315 | -0.0114 | -0.0308 | -0.0011 | -0.0382 | -0.0214
2 | Cc1cc2ncnn2cc1Nc1ncc2c(n1)n(C1CCOCC1)c(=O)n2C [AZD7648] + C[C@@H]1COCCN1C2=NC(=NC(=C2)C3(CC3)[S@](=N)(=O)C)C4=C5C=CNC5=NC=C4 [AZD6738] (first compound max 10 µM, 7x7, partner max 10 µM) | -0.0581 | -0.0649 | 0.0178 | -0.0064 | 0.0062 | 0.0001 | 0.0663 | -0.0229 | 0.0356 | 0.0003 | -0.0263 | 0.0193 | -0.0306 | -0.0596 | 0.0761 | 0.0074 | 0.0046 | -0.0193 | 0.0252
3 | CN(C)CCCOc1ccc(-c2ccc3ncc4c(c3c2)n(C2CCOCC2)c(=O)n4C)cn1 [AZD0156] + C=CCn1c(=O)c2cnc(Nc3ccc(N4CCN(C)CC4)cc3)nc2n1-c1cccc(C(C)(C)O)n1 [AZD1775] (first compound max 1 µM, partner max 1 µM) | 0.0275 | -0.0255 | -0.0204 | -0.0001 | 0.0122 | -0.012 | -0.0002 | -0.031 | -0.0232 | -0.0459 | -0.006 | -0.0553 | -0.0093 | -0.0283 | -0.0113 | -0.0225 | 0.0045 | -0.0705 | -0.0422
4 | COc1cccc2c1C(=O)c1c(O)c3c(c(O)c1C2=O)C[C@@](O)(C(=O)CO)C[C@@H]3O[C@H]1C[C@H](N)[C@H](O)[C@H](C)O1 [Doxorubicin] + Cc1cc2ncnn2cc1Nc1ncc2c(n1)n(C1CCOCC1)c(=O)n2C [AZD7648] (first compound max 1 µM, 7x7, partner max 10 µM) | 0.0271 | 0.106 | 0.0248 | 0.0887 | 0.0761 | 0.0808 | 0.0411 | 0.0251 | -0.0086 | 0.0033 | 0.0255 | -0.0119 | 0.0799 | 0.0827 | 0.0202 | 0.0022 | 0.143 | 0.0507 | -0.0393
5 | CCN(CCO)CCCOc1ccc2c(Nc3cc(CC(=O)Nc4cccc(F)c4)[nH]n3)ncnc2c1 [AZD2811] + C=CCn1c(=O)c2cnc(Nc3ccc(N4CCN(C)CC4)cc3)nc2n1-c1cccc(C(C)(C)O)n1 [AZD1775] (first compound max 1 µM, partner max 1 µM) | 0.081 | -0.0363 | -0.0323 | 0.0411 | -0.0024 | -0.0785 | 0.0569 | -0.0602 | -0.0048 | 0.0269 | -0.0044 | -0.0245 | -0.0399 | 0.0241 | 0.0045 | -0.0047 | 0.028 | -0.0576 | -0.0285
6 | COc1cccc(OCCCN)c1-c1cc(Nc2cnc(C#N)cn2)n[nH]1 [Prexasertib] + Cc1cc2ncnn2cc1Nc1ncc2c(n1)n(C1CCOCC1)c(=O)n2C [AZD7648] (first compound max 1 µM, 7x7, partner max 10 µM) | -0.0574 | 0.0049 | 0.0159 | -0.0144 | -0.0121 | 0.0096 | -0.0027 | -0.0628 | -0.0177 | -0.0329 | -0.0196 | -0.0093 | -0.0407 | -0.0355 | 0.0514 | -0.0002 | -0.0257 | -0.0105 | -0.0322
7 | Cc1cc2ncnn2cc1Nc1ncc2c(n1)n(C1CCOCC1)c(=O)n2C [AZD7648] + CN(C)CCCOc1ccc(-c2ccc3ncc4c(c3c2)n(C2CCOCC2)c(=O)n4C)cn1 [AZD0156] (first compound max 10 µM, 7x7, partner max 1 µM) | -0.0313 | -0.0206 | 0.0054 | 0.0001 | -0.0163 | 0.0046 | 0.0637 | -0.064 | -0.0068 | -0.0443 | -0.0656 | 0.0042 | -0.0024 | 0.0094 | 0.0258 | 0.019 | 0.0628 | -0.0383 | 0.009
8 | Cc1cc2ncnn2cc1Nc1ncc2c(n1)n(C1CCOCC1)c(=O)n2C [AZD7648] + O=C(c1cc(Cc2n[nH]c(=O)c3ccccc23)ccc1F)N1CCN(C(=O)C2CC2)CC1 [Olaparib] (first compound max 10 µM, 7x7, partner max 10 µM) | 0.0303 | -0.0034 | -0.0428 | -0.0478 | 0.0132 | 0.0099 | -0.0241 | -0.0418 | -0.0138 | -0.0896 | -0.0204 | -0.0255 | -0.0102 | -0.0382 | -0.0278 | -0.035 | 0.0254 | -0.0399 | -0.0264
9 | CN(C)CCCOc1ccc(-c2ccc3ncc4c(c3c2)n(C2CCOCC2)c(=O)n4C)cn1 [AZD0156] + C[C@@H]1COCCN1C2=NC(=NC(=C2)C3(CC3)[S@](=N)(=O)C)C4=C5C=CNC5=NC=C4 [AZD6738] (first compound max 1 µM, 7x7, partner max 10 µM) | 0.0224 | 0.027 | 0.0037 | 0.0263 | 0.0618 | -0.0101 | 0.0044 | -0.0119 | -0.0172 | -0.0347 | 0.0366 | -0.0485 | -0.038 | 0.0286 | -0.0241 | 0.0052 | 0.0267 | -0.0283 | -0.0034
10 | COc1cccc(OCCCN)c1-c1cc(Nc2cnc(C#N)cn2)n[nH]1 [Prexasertib] + CN(C)CCCOc1ccc(-c2ccc3ncc4c(c3c2)n(C2CCOCC2)c(=O)n4C)cn1 [AZD0156] (first compound max 1 µM, 7x7, partner max 1 µM) | 0.023 | -0.0156 | -0.0208 | -0.0056 | 0.0147 | -0.0077 | 0.0113 | -0.0425 | -0.0211 | -0.0605 | 0.0014 | -0.0163 | 0.015 | 0.0117 | 0.0551 | -0.0279 | 0.0075 | -0.0346 | -0.0307
11 | Cc1cc2ncnn2cc1Nc1ncc2c(n1)n(C1CCOCC1)c(=O)n2C [AZD7648] + CCN(CCO)CCCOc1ccc2c(Nc3cc(CC(=O)Nc4cccc(F)c4)[nH]n3)ncnc2c1 [AZD2811] (first compound max 10 µM, 7x7, partner max 1 µM) | 0.0312 | -0.0264 | -0.0115 | 0.0846 | 0.0076 | 0.0478 | 0.0518 | 0.0084 | 0.0138 | 0.0165 | -0.0082 | -0.0112 | 0.0524 | 0.0981 | -0.0036 | -0.0057 | 0.0065 | -0.0213 | -0.0002
12 | COc1cccc(OCCCN)c1-c1cc(Nc2cnc(C#N)cn2)n[nH]1 [Prexasertib] + C[C@@H]1COCCN1C2=NC(=NC(=C2)C3(CC3)[S@](=N)(=O)C)C4=C5C=CNC5=NC=C4 [AZD6738] (first compound max 1 µM, 7x7, partner max 10 µM) | -0.0994 | -0.0345 | -0.0218 | 0.0193 | -0.0489 | 0.0115 | 0.0187 | -0.0707 | -0.0696 | 0.0194 | -0.018 | -0.0456 | -0.0145 | -0.0186 | 0.0721 | -0.0214 | -0.0132 | -0.0395 | -0.0233
13 | C[C@@H]1COCCN1c1cc(C2([S@](C)(=N)=O)CC2)nc(-c2ccnc3[nH]ccc23)n1 [AZD6738] + O=C(c1cc(Cc2n[nH]c(=O)c3ccccc23)ccc1F)N1CCN(C(=O)C2CC2)CC1 [Olaparib] (first compound max 10 µM, 7x7, partner max 10 µM) | 0.0142 | 0.0364 | 0.0652 | -0.0147 | 0.0608 | -0.0196 | 0.0227 | -0.0208 | -0.0402 | 0.0208 | -0.0376 | 0.029 | 0.0017 | -0.0194 | 0.0554 | 0.0117 | 0.0804 | -0.0465 | 0.0403
14 | CCN(CCO)CCCOc1ccc2c(Nc3cc(CC(=O)Nc4cccc(F)c4)[nH]n3)ncnc2c1 [AZD2811] + C[C@@H]1COCCN1C2=NC(=NC(=C2)C3(CC3)[S@](=N)(=O)C)C4=C5C=CNC5=NC=C4 [AZD6738] (first compound max 1 µM, 7x7, partner max 10 µM) | 0.037 | -0.0276 | -0.0481 | 0.0182 | -0.0042 | -0.053 | -0.042 | -0.0649 | -0.0323 | -0.0723 | -0.0816 | -0.0728 | -0.056 | -0.0406 | 0.0036 | -0.0777 | 0.0382 | -0.0063 | -0.009
15 | C=CCn1c(=O)c2cnc(Nc3ccc(N4CCN(C)CC4)cc3)nc2n1-c1cccc(C(C)(C)O)n1 [AZD1775] + C[C@@H]1COCCN1C2=NC(=NC(=C2)C3(CC3)[S@](=N)(=O)C)C4=C5C=CNC5=NC=C4 [AZD6738] (first compound max 1 µM, partner max 10 µM) | 0.0384 | 0.0499 | 0.0479 | 0.0535 | 0.0417 | 0.0456 | -0.0161 | -0.0355 | -0.003 | -0.0098 | -0.0113 | 0.0428 | 0.0822 | – | 0.0735 | 0.0441 | 0.0071 | -0.0076 | 0.0638
16 | CCc1c2c(nc3ccc(O)cc13)-c1cc3c(c(=O)n1C2)COC(=O)[C@]3(O)CC [SN-38] + O=C(c1cc(Cc2n[nH]c(=O)c3ccccc23)ccc1F)N1CCN(C(=O)C2CC2)CC1 [Olaparib] (first compound max 0.3 µM, 7x7, partner max 10 µM) | 0.0749 | 0.0148 | 0.0174 | – | -0.0648 | 0.06 | 0.0404 | -0.0232 | – | 0.064 | – | 0.0741 | -0.0154 | -0.0065 | -0.0251 | – | 0.0611 | 0.0207 | 0.0419
